Experimental data as given in publication PMC10146604, “The Balance between Hydrophobicity/Aromaticity and Positively Charged Residues May Influence the Cell Penetration Ability” (Pharmaceutics, 2023).
Peptide text beside a SMILES is read from it. * marks the point of attachment. 5FAM = O=C1OC2(c3ccc(O)cc3Oc3cc(O)ccc32)c2ccc(C(=O)*)cc21; Dabcyl = CN(C)c1ccc(N=Nc2ccc(C(=O)*)cc2)cc1

Test system: EBC-1 human lung squamous carcinoma cells
Test: Cellular uptake by flow cytometry
Assay type: cell-based
Details: 90 min, 37 °C, trypsinization; for cellular uptake relative to the control octaarginine (Cf-Arg8) / cellular uptake (in words): 5 µM peptide, serum-free medium; for cellular uptake relative to the control octaarginine (Cf-Arg8): flow cytometry fluorescence intensity normalized to Cf-Arg8; for cellular uptake (in words): compared with Cf-Arg8
Experimental: For the examination of the internalization of the peptides, 10^5 cultured EBC-1 cells per well were plated on 24-well plates. The cells were incubated for 24 h at 37 °C then they were treated with peptides at different concentrations for 90 min in a serum-free medium. In the negative control the cells were treated with a serum-free medium. After the incubation, the peptide solutions were removed and 100 µL trypsin (0.25%) was added for 5–10 min to remove membrane bound peptides and detach the adherent cells from the plates. The activity of trypsin was terminated by the addition of 900 µL HPMI buffer (glucose, NaHCO3, NaCl, HEPES, KCl, MgCl2, CaCl2, Na2HPO4∙2H2O) containing 10% fetal bovine serum, and the cells were transferred from the plates to FACS-tubes for measurement. The cells were centrifuged at 216× g at 4 °C for 5 min and the supernatant was removed. The cells were resuspended in 250 µL HPMI, and the fluorescence intensity of the cells was quantified using flow cytometry (BD LSR II, BD Bioscience, San Jose, CA, USA). The data were analyzed with FACSDiva 5.0 software (BD Bioscience, San Jose, CA, USA).
The cellular uptake of the peptides was determined using flow cytometry on EBC-1 human lung squamous carcinoma cells. The peptides were added to the cells at a concentration of 5 µM for 90 min at 37 °C. Selected constructs were used to study the concentration dependence at 0.125, 1.25 and 2.5 µM with 90 min treatment times. When evaluating the measurements data, the fluorescence of cells treated with peptides was corrected with the autofluorescence of cells without peptide treatment. The toxicity of the peptide conjugates was determined by comparing the live and dead cells ratio during the flow cytometry analysis.

In the case of `CN(C)c1ccc(N=Nc2ccc(C(=O)N[C@@H](CCCNC(=N)N)C(=O)N[C@@H](CCCNC(=N)N)C(=O)N[C@@H](CCCNC(=N)N)C(=O)N[C@@H](CCCNC(=N)N)C(=O)N[C@@H](CCCNC(=N)N)C(=O)N[C@@H](CCCNC(=N)N)C(=O)N[C@@H](CCCNC(=N)N)C(=O)N[C@@H](CCCCNC(=O)c3ccc4c(c3)C(=O)OC43c4ccc(O)cc4Oc4cc(O)ccc43)C(N)=O)cc2)cc1` [Dabcyl-(Arg)7-Lys(Cf)], the “cellular uptake relative to the control octaarginine (Cf-Arg8)” value (EBC-1 cells) is reported as 6 times.

For `CN(C)c1ccc(N=Nc2ccc(C(=O)N[C@@H](CCCNC(=N)N)C(=O)N[C@@H](CCCNC(=N)N)C(=O)N[C@@H](CCCNC(=N)N)C(=O)N[C@@H](CCCNC(=N)N)C(=O)N[C@@H](CCCCNC(=O)c3ccc4c(c3)C(=O)OC43c4ccc(O)cc4Oc4cc(O)ccc43)C(N)=O)cc2)cc1` [Dabcyl-(Arg)4-Lys(Cf)] (Dabcyl-RRRRK(5FAM)-NH2), the “cellular uptake (in words)” value (EBC-1 cells, flow cytometry) was “lower cellular uptake than octaarginine”.

With `CN(C)c1ccc(N=Nc2ccc(C(=O)N[C@@H](CCCNC(=N)N)C(=O)N[C@@H](CCCNC(=N)N)C(=O)N[C@@H](CCCNC(=N)N)C(=O)N[C@@H](CCCNC(=N)N)C(=O)N[C@@H](CCCNC(=N)N)C(=O)N[C@@H](CCCNC(=N)N)C(=O)N[C@@H](CCCCNC(=O)c3ccc4c(c3)C(=O)OC43c4ccc(O)cc4Oc4cc(O)ccc43)C(N)=O)cc2)cc1` [Dabcyl-(Arg)6-Lys(Cf)] the “cellular uptake relative to the control octaarginine (Cf-Arg8)” value (EBC-1 cells) was 6.5 times.

With `CN(C)c1ccc(N=Nc2ccc(C(=O)NCCCC[C@H](NC(=O)[C@H](CCCNC(=N)N)NC(=O)[C@H](CCCNC(=N)N)NC(=O)[C@H](CCCNC(=N)N)NC(=O)[C@H](CCCNC(=N)N)NC(=O)[C@H](CCCNC(=N)N)NC(=O)[C@H](CCCNC(=N)N)NC(=O)c3ccc4c(c3)C(=O)OC43c4ccc(O)cc4Oc4cc(O)ccc43)C(N)=O)cc2)cc1` [Cf-(Arg)6-Lys(Dabcyl)] the “cellular uptake (in words)” value (EBC-1 cells, flow cytometry) was “surprisingly poor cellular uptake” and the “cellular uptake compared with octaarginine at low concentrations (in words)” value (EBC-1 cells, 0.125, 1.25 and 2.5 µM peptide, flow cytometry) was “significantly decreased uptake”.

For `CN(C)c1ccc(N=Nc2ccc(C(=O)NCc3ccc(C(=O)N[C@@H](CCCNC(=N)N)C(=O)N[C@@H](CCCNC(=N)N)C(=O)N[C@@H](CCCNC(=N)N)C(=O)N[C@@H](CCCNC(=N)N)C(=O)N[C@@H](CCCNC(=N)N)C(=O)N[C@@H](CCCNC(=N)N)C(=O)N[C@@H](CCCNC(=N)N)C(=O)N[C@@H](CCCNC(=N)N)C(=O)N[C@@H](CCCCNC(=O)c4ccc5c(c4)C(=O)OC54c5ccc(O)cc5Oc5cc(O)ccc54)C(N)=O)cc3)cc2)cc1` [Dabcyl-AMBA-(Arg)8-Lys(Cf)], the “cellular uptake relative to Cf-Arg8” value (EBC-1 cells, 1.25 µM peptide, flow cytometry) was ~ 6 times, the “cellular uptake relative to octaarginine” value (EBC-1 cells, 2.5 µM peptide, flow cytometry) was 30 times and the “cellular uptake relative to the control octaarginine (Cf-Arg8)” value (EBC-1 cells) was ~ 8 times.
